Experimental data reported in US20260166159A1, “KRAS G12D DEGRADATION AGENT, AND PREPARATION METHOD AND USE THEREFOR” (LEADINGTAC PHARMACEUTICAL (SHAOXING) CO., LTD., priority 2022, published 2026).

Experiments:
KRAS-G12D = target: T1, KRAS-G12D (Homo sapiens, UniProt P01116, G12D); assay: KRAS-G12D degradation assay (Western Blot), A-427 cells; type: cell-based; conditions: A427 cells, 24 h; for Dmax: A-427
T1 construct: endogenous in cells; host or cells: A-427 (ATCC), AGS, AsPc-1, Panc 04.03
T1 sequence (P01116 1-188 isoform P01116-2 G12D): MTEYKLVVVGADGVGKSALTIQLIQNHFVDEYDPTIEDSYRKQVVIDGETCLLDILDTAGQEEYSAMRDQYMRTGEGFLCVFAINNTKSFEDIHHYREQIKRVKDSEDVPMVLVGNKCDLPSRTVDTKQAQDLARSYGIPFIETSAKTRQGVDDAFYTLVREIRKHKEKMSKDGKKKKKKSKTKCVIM
Protocol: The degradation effects of the compounds on KRAS-G12D were investigated on KRAS G12D mutant human lung cancer cell A-427 (ATCC), KRAS G12D mutant human gastric cancer cell AGS, KRAS G12D mutant human metastatic pancreatic cancer cell AsPc-1, and KRAS G12D mutant human pancreatic adenocarcinoma cell Panc 04.03. The specific procedures were as follows: 0.95 mL of cells were seeded into each well of a 24-well cell culture plate to achieve a cell density of 5×10^5 cells/well; and the cell plate was incubated in an incubator at 37° C. with 5% CO2 overnight. Then 50 μL of the compound solution after dilution was added to each of the wells with the corresponding cells, so that the final concentration of the compound was in a range of 0.03-3000 nM. The final concentration of DMSO was 0.25%. After the compounds were added, the cell plate was incubated in the incubator at 37° C. with 5% CO2 for 24 h. The culture medium in the 24-well cell culture plate was removed, and the plate was washed twice with 1×PBS (KeyGEN). 120 μL of RIPA (strong) lysis buffer (Beyotime) supplemented with 1 mM phenylmethylsulfonyl fluoride, a protease inhibitor mixture (Beyotime), and a protease phosphatase inhibitor mixture (Beyotime) was added to lyse adherent A-427 cells at the bottom of the cell culture plate. After the plate was left to stand on ice for 30 min, the protein lysate in each well was transferred to a 1.5 mL centrifuge tube and centrifuged at 15000 g for 20 min at 4° C. The cell lysate supernatants after centrifugation were cryopreserved in a refrigerator at −80° C. for later use.
After the samples of the cell lysate supernatants that had been prepared were thawed from the refrigerator at −80° C., the total protein concentrations of the cell lysates were determined using a BCA protein quantification kit (Tiangen). The total protein concentrations of the samples were then adjusted to 0.5 μg/μL with PBS and 5×SDS-PAGE protein loading buffer (Beyotime), and the samples were incubated in a water bath at 100° C. for 15 min. The samples were then incubated in an ice bath for 5 min and centrifuged at 14000 g for 1 min at 4° C., and the supernatants were mixed well as loading samples for the Western Blot assay. The samples were loaded into wells of a 10% precast gel (KeyGEN) with a loading volume of 10 μL (total protein: 5 μg), a sufficient Tris-MOPS-SDS running buffer (Adamas) was added, and then electrophoresis was performed at a constant voltage of 120 V for 55 min. After the electrophoresis, the proteins on the gel were transferred to PVDF membranes at a constant current of 250 mA for 55 min. After the membrane transfer, the PVDF membranes were incubated in 1× Quick Block blocking buffer (Beyotime) at room temperature for 30 min. After the blocking, the PVDF membranes were separately incubated at 4° C. overnight with the KRAS antibody (Abcam) diluted in a ratio of 1:1000 and the […] antibody (Abcam) diluted in a ratio of 1:2000 in 5% BSA as the diluent, and then washed with 1×TBST buffer (2.4 g of Tris, 8.8 g of NaCl, 1.5 mL of Tween 20, with pH adjusted to 7.4, with the volume brought to 1 L) 3 times for 10 min/time. The membranes were incubated with a secondary antibody (Abcam) diluted in 5% BSA at room temperature for 2 h, and then washed with 1×TBST buffer 3 times for 10 min/time. Finally, the membranes were incubated with Clarity Western ECL Substrate (BIO-RAD) for 5 min for luminescence and color development, and a ChemiScope 6200 Touch chemiluminescence imaging system (Clinx) was used for color development and protein mapping. Gray value analysis of the protein maps was performed using the chemiluminescence analysis software (Clinx). The gray correction value for each sample was calculated using the formula: gray correction value=(gray value of target protein/gray value of corresponding internal reference)×10^3. Then degradation rates were calculated by comparison with the gray correction value of the control group. […]

[1] = tested on: KRAS G12D mutant human gastric cancer cell AGS; assay: 3D cell proliferation inhibition assay, AGS; type: cell-based; conditions: 168 h, 7 days, CTG, numeric values
Description: The inhibitory effects of the compounds on 3D cell proliferation were investigated on KRAS G12D mutant human lung cancer cell A427, KRAS G12D mutant human gastric cancer cell AGS, KRAS G12D mutant human metastatic pancreatic cancer cell AsPc-1, KRAS G12D mutant human pancreatic cancer cell Panc 04.03, KRAS G12D mutant human pancreatic cancer cell HPAC, KRAS G12V mutant human lung squamous cell carcinoma cell SW900, and KRAS WT human gastric cancer cell MKN1. The specific procedures were as follows:
10 μL of each compound solution diluted in a gradient was added to corresponding wells of a 96-well low-adsorption microplate (PerkinElmer), so that the final concentrations of the test compounds in the reaction system were in a range of 10000-0.026 nM. The final concentration of DMSO was 0.2%. Then 90 µL of cells were correspondingly seeded into each well to achieve a cell density of 5×10^2 cells/well (the cell density of SW900 was 5×10^1 cells/well, and the cell density of MKN1 was 1×10^3 cells/well). In addition to test wells for the test compounds, both a DMSO control well and a medium control well were set, with the DMSO control well containing DMSO and cells and the medium well containing only a medium. After the sample loading, the 96-well low-adsorption microplate was incubated in an incubator at 37° C. with 5% carbon dioxide for 7 days. After 7 days, the microplate was taken out, and 100 μL of CTG reagent (Promega) was added to each well. The plate was incubated at room temperature for 60 min and read on a microplate reader EnVision by the chemiluminescence program. The inhibition rates of the compounds at each concentration were calculated using the formula for the percentage inhibition of cell proliferation: inhibition rate %=(mean value of DMSO control group−single concentration reading value of compound)/(mean value of DMSO control group−mean value of medium control group)×100. Then non-linear curve fittings for logarithmic concentration-inhibition rate were performed by GraphPad Prism 8, and the IC50 values of the compounds were obtained (Table 5).

| SMILES | DC50 (KRAS-G12D; class symbols) [nM] | IC50 [1] [nM] | DC50 (KRAS-G12D; numeric values) [nM] | Dmax (KRAS-G12D; numeric values) [%] | further results |
| --- | --- | --- | --- | --- | --- |
| C#Cc1c(F)ccc2cc(O)cc(-c3ncc4c(N5CC6CCC(C5)N6)nc(OCC5(CN6CC(CCN7CCC8(CC7)CCN(C(=O)c7ccc(OC)c(N9CCC(=O)NC9=O)c7)CC8)C6)CC5)nc4c3F)c12 [Example 41, 1-(5-(9-(2-(1-((1-(((4-(3,8-diazabicyclo[3.2.1]octan-3-yl)-7-(8-ethynyl-7-fluoro-3-hydroxynaphthalen-1-yl)-8-fluoropyrido[4,3-d]pyrimidin-2-yl)oxy)methyl)cyclopropyl)methyl)azetidin-3-yl)ethyl)-3,9-diazaspiro[5.5]undecane-3-carbonyl)-2-methoxyphenyl)dihydropyrimidine-2,4(1H,3H)-dione] | 1000 to 10000 | – | – | – | – |
| C#Cc1c(F)ccc2cc(O)cc(-c3ncc4c(N5CC6CCC(C5)N6)nc(OCC5(CN6CCN(CCC7CC8(CCN(C(=O)c9ccc(OC)c(N%10CCC(=O)NC%10=O)c9)CC8)C7)CC6)CC5)nc4c3F)c12 [Example 43, 1-(5-(2-(2-(4-((1-(((4-(3,8-diazabicyclo[3.2.1]octan-3-yl)-7-(8-ethynyl-7-fluoro-3-hydroxynaphthalen-1-yl)-8-fluoropyrido[4,3-d]pyrimidin-2-yl)oxy)methyl)cyclopropyl)methyl)piperazin-1-yl)ethyl)-7-azaspiro[3.5]nonane-7-carbonyl)-2-methoxyphenyl)dihydropyrimidine-2,4(1H,3H)-dione] | ≤ 50 | – | – | – | Dmax (KRAS-G12D; class symbols): 50 to 80% |
| C#Cc1c(F)ccc2cc(O)cc(-c3ncc4c(N5CC6CCC(C5)N6)nc(NCC5(CN6CCN(CC7CCC8(CC7)CCN(C(=O)c7ccc(Cl)c(N9CCC(=O)NC9=O)c7)CC8)CC6)CC5)nc4c3F)c12 [Example 46, 1-(5-(9-((4-((1-(((4-(3,8-diazabicyclo[3.2.1]octan-3-yl)-7-(8-ethynyl-7-fluoro-3-hydroxynaphthalen-1-yl)-8-fluoropyrido[4,3-d]pyrimidin-2-yl)amino)methyl)cyclopropyl)methyl)piperazin-1-yl)methyl)-3-azaspiro[5.5]undecane-3-carbonyl)-2-chlorophenyl)dihydropyrimidine-2,4(1H,3H)-dione] | ≤ 50 | – | – | – | Dmax (KRAS-G12D; class symbols): 80 to 100% |
| C#Cc1c(F)ccc2cc(O)cc(-c3ncc4c(N5CC6CCC(C5)N6)nc(OCC5CCN(CCCC6CCC7(CC6)CCN(C(=O)c6ccc(Cl)c(N8CCC(=O)NC8=O)c6)CC7)CC5)nc4c3F)c12 [Example 68, 1-(5-(9-(3-(4-(((4-(3,8-diazabicyclo[3.2.1]octan-3-yl)-7-(8-ethynyl-7-fluoro-3-hydroxynaphthalen-1-yl)-8-fluoropyrido[4,3-d]pyrimidin-2-yl)oxy)methyl)piperidin-1-yl)propyl)-3-azaspiro[5.5]undecane-3-carbonyl)-2-chlorophenyl)dihydropyrimidine-2,4(1H,3H)-dione] | – | 24.8 | – | – | – |
| CCc1cccc2cc(O)cc(-c3ccc4c(N5CC6CCC(C5)N6)nc(OCC5(CN6CCN(CC7CCC8(CC7)CCN(C(=O)c7ccc(C)c(N9CCC(=O)NC9=O)c7)CC8)CC6)CC5)nc4c3F)c12 [Example 70, 1-(5-(9-((4-((1-(((4-(3,8-diazabicyclo[3.2.1]octan-3-yl)-7-(8-ethyl-3-hydroxynaphthalen-1-yl)-8-fluoroquinazolin-2-yl)oxy)methyl)cyclopropyl)methyl)piperazin-1-yl)methyl)-3-azaspiro[5.5]undecane-3-carbonyl)-2-methylphenyl)dihydropyrimidine-2,4(1H,3H)-dione] | – | 15.5 | 14.6 | 87.3 | – |
| CCc1cccc2cc(O)cc(-c3ccc4c(N5CC6CCC(C5)N6)nc(OCC5(CN6CCN(CC7CCC8(CC7)CCN(C(=O)c7ccc(OC)c(N9CCC(=O)NC9=O)c7)CC8)CC6)CC5)nc4c3F)c12 [Example 83, 1-(5-(9-((4-((1-(((4-(3,8-diazabicyclo[3.2.1]octan-3-yl)-7-(8-ethyl-3-hydroxynaphthalen-1-yl)-8-fluoroquinazolin-2-yl)oxy)methyl)cyclopropyl)methyl)piperazin-1-yl)methyl)-3-azaspiro[5.5]undecane-3-carbonyl)-2-methoxyphenyl)dihydropyrimidine-2,4(1H,3H)-dione] | – | – | 33.9 | 87.2 | – |
| C#Cc1c(F)ccc2cc(O)cc(-c3ncc4c(N5C[C@@H]6C[C@H]5CN6)nc(OCC5(CN6CCN(CC7CCC8(CC7)CCN(C(=O)c7ccc(C)c(N9CCC(=O)NC9=O)c7)CC8)CC6)CC5)nc4c3F)c12 [Example 86, 1-(5-(9-((4-((1-(((4-((1S,4S)-2,5-diazabicyclo[2.2.1]heptan-2-yl)-7-(8-ethynyl-7-fluoro-3-hydroxynaphthalen-1-yl)-8-fluoropyrido[4,3-d]pyrimidin-2-yl)oxy)methyl)cyclopropyl)methyl)piperazin-1-yl)methyl)-3-azaspiro[5.5]undecane-3-carbonyl)-2-methylphenyl)dihydropyrimidine-2,4(1H,3H)-dione] | – | 97.5 | – | – | – |
| C#Cc1c(F)ccc2cc(O)cc(-c3ncc4c(N5CC6CCC(C5)N6)nc(OCC5(CN6CC7CC(C6)N7CC6CCC7(CC6)CCN(C(=O)c6ccc(Cl)c(N8CCC(=O)NC8=O)c6)CC7)CC5)nc4c3F)c12 [Example 87, 1-(5-(9-((3-((1-(((4-(3,8-diazabicyclo[3.2.1]octan-3-yl)-7-(8-ethynyl-7-fluoro-3-hydroxynaphthalen-1-yl)-8-fluoropyrido[4,3-d]pyrimidin-2-yl)oxy)methyl)cyclopropyl)methyl)-3,6-diazabicyclo[3.1.1]heptan-6-yl)methyl)-3-azaspiro[5.5]undecane-3-carbonyl)-2-chlorophenyl)dihydropyrimidine-2,4(1H,3H)-dione] | – | 606 | – | – | – |
| CCc1cccc2cc(O)cc(-c3ncc4c(N5CCC6CCC(C5)N6)nc(OCC5(CN6CCN(CC7CCC8(CC7)CCN(C(=O)c7ccc(OC)c(N9CCC(=O)NC9=O)c7)CC8)CC6)CC5)nc4c3F)c12 (stereo not drawn) [Example 88, 1-(5-(9-((4-((1-(((4-(3,9-diazabicyclo[4.2.1]nonan-3-yl)-7-(8-ethyl-3-hydroxynaphthalen-1-yl)-8-fluoropyrido[4,3-d]pyrimidin-2-yl)oxy)methyl)cyclopropyl)methyl)piperazin-1-yl)methyl)-3-azaspiro[5.5]undecane-3-carbonyl)-2-methoxyphenyl)dihydropyrimidine-2,4(1H,3H)-dione] | – | – | 0.65 | 89.5 | – |
